Consider one molecule from US9155722B2, “Reconstitutable reverse thermal gelling polymers” (PROTHERICS SALT LAKE CITY, INC., priority 2009, dated 2015).

A value given as a limit tells only on which side of the number the result lay.

The nature of series [1]: physchem. On the procedure:
For solubilization studies, the calculated amount of Paclitaxel was add to the block polymers aqueous solution (prepared according to Example 5) and stirred for 10-20 minute at room temperature or 4° C.

Series [2] is described as follows: Stability of paclitaxel in copolymer solution or gel. In kind it is physicochemical.
The conditions of series [3]: cited from earlier work.

Consider `CC(=O)O[C@H]1C(=O)[C@@]2(C)[C@H]([C@H](OC(=O)c3ccccc3)[C@]3(O)C[C@H](OC(=O)[C@H](O)[C@@H](NC(=O)c4ccccc4)c4ccccc4)C(C)=C1C3(C)C)[C@]1(OC(C)=O)CO[C@@H]1C[C@@H]2O` [paclitaxel], for which, in series [1], the “increase in solubility of paclitaxel” value was approximately 3000 fold. The solubility (commonly the dissolved amount per volume that the medium holds) in series [1] (aqueous with cosolvent or surfactant or cyclodextrin, thermodynamic from solid) is not above 12 mg/mL. Also, the paclitaxel intact in series [2] (23% by weight aqueous triblock copolymer solutions or gels, after 30 days in storage (2 to 8° C. and 37° C.)) is more than 90%. The molecule further gave a paclitaxel degraded in series [2] (aqueous cosolvent solution, in less than one week at 37° C.) of more than 50%. Also, in series [3], the solubility in water result is recorded as “approximately 4 μg/ml”.
